According to ChEMBL document CHEMBL3507680, “University of Dundee, Gates Library screen for HepG2 cell viability”:

Experiment: Human HepG2 cell viability assay in 384 well format
Assay type: toxicity, cell-based
Parameters: dose 125 nL, time 70.5 hour; cytotoxicity at 70.5 h: concentration not given beside the values
Settings: HepG2 cells, read-out: Inhibition

Row | Compound | cytotoxicity at 70.5 h [%]
1 | CS(=O)(=O)CCC(=O)NC1(c2cccc(Br)c2)CC1 | -8.28
2 | CN1C[C@@H](N)C[C@H]1C(=O)N1CCC(Cc2ccc(F)cc2)CC1 | 0.737
3 | O=C1CC2(CCCCN2C(=O)c2ccco2)CN1c1cccnc1 (configuration not stated) | 15.4
4 | CCc1ccc(C(=O)N2CCN(c3nc(C)cc(OC)n3)CC2)o1 | 4.76
5 | CC(CCn1cccn1)Nc1ccc(-c2nccn2C)nn1 (configuration not stated) | 22.7
6 | CC(C)n1ccnc1CN1CCCN(C(=O)CC2C=CCC2)CC1 (configuration not stated) | 31.4
7 | c1cc(-c2n[nH]c(CNc3nnc(C4CC4)o3)n2)ccn1 | 0.716
8 | COc1ccc(CNC(=O)CCN2C[C@@H](C)[C@](O)(C3CC3)C2)cc1 | -4.82
9 | CN(CCN1CCCCC1)C(=O)c1cc(CN2CCOCC2)on1 | 2.75
10 | CC(O)(CCc1ccccc1)CNC(=O)c1ccsc1 (configuration not stated) | -2.72
11 | COc1ncccc1NC(=O)N1CCC(c2ccc(O)cc2)CC1 | -3.42
12 | O=C(C1CCCCC1)N1CCN(Cc2nc(-c3ccco3)no2)CC1 | -5.01
13 | O=C(NCc1ccccc1)C1=NOC2(CCNC2)C1 (configuration not stated) | -11
14 | CCOCCNS(=O)(=O)c1ccc2c3c1CCCN3C(=O)CO2 | 33.6
15 | CNC(=O)C1CCN(C(=O)c2coc(COc3ccc(OC)cc3)n2)C1 (configuration not stated) | -2.27
16 | Cc1ccc(CN2CCOCC3(C2)CN(c2ccc(C)s2)C(=O)CO3)o1 (configuration not stated) | 0.222
17 | COCCC1(CNC(=O)NCC2CCCN(C)C2)CCC1 (configuration not stated) | -12
18 | CCc1nc(CCNC(=O)C2CC2)sc1C | -1.22
19 | CC(=O)N1CCC2(C=C(C(=O)NC3CC3)c3ccccc32)CC1 | -13.7
20 | CC(C(=O)O)N1CC2(CCC1=O)CCN(C/C=C/c1ccccc1)CC2 (configuration not stated) | -7.03
21 | Cc1ccsc1C(=O)NCc1ccnc(C2CCCOC2)n1 (configuration not stated) | 13.6

Row | Compound | cytotoxicity at 70.5 h [%]
22 | CCOc1ccc(CN(C)C(C)C(=O)Nc2cc(C)no2)cc1 (configuration not stated) | -5.64
23 | CCCn1nc2c(cc1=O)CN(CCS(C)(=O)=O)CC2 | 9.12
24 | CNc1cc2c(nn1)CCN(C(=O)c1ccc(-n3cccn3)nc1)C2 | -14.4
25 | Cc1ccc(CN2CCC(c3cnccn3)CC2)s1 | -3.44
26 | Cc1cc(-c2cnc(N(C)C)nc2C2CCCCN2C(=O)C2CC2)on1 (configuration not stated) | -3.37
27 | CC(=O)NC1CCCN(C(=O)c2ccc(Br)cc2O)C1 (configuration not stated) | -8.57
28 | O=C(Nc1nnc(C(F)F)s1)NC(CCO)c1cccs1 (configuration not stated) | 32.8
29 | Cc1cc(C(=O)N2C[C@@H]3COC[C@]3(c3nnc(C)o3)C2)on1 | -11.2
30 | COc1cc(C(=O)N(Cc2cnn(C)c2)C(C)C)ccc1C | -1.26
31 | CC(C)c1cc(C(=O)N2CC[C@@H](c3ccc4c(c3)OCO4)[C@H](O)C2)[nH]n1 | 3.33
32 | COc1cccc(CN2CCOC(c3cnccn3)C2)c1F (configuration not stated) | -8.48
33 | CCn1cc(CN2CCCC2c2nc(-c3ccccc3)no2)cc1C#N (configuration not stated) | 2.37
34 | O=C(CN1CCN(CC2CCOc3ccccc3C2)CC1)N1CCCC1 (configuration not stated) | -13
35 | CC(=O)N1CCC2(CN(CC3CCCC3)C2)C1 | -3.32
36 | Cc1nn(C)c(C)c1NC(=O)CNc1ccc(F)c(C(F)(F)F)c1 | -2.51
37 | Cc1nnnn1-c1cc(NCc2cccc(C#N)c2)ccc1F | -24.4
38 | N#Cc1ccc(C(=O)N2CCOC[C@H](Oc3cnccn3)C2)cc1 | -0.682
39 | Cc1ccccc1OCCC(=O)N(C)Cc1c(C)noc1C | -11.1
40 | O=C(c1cc(-n2cccn2)ccn1)N1CCOc2ccc(F)cc21 | 0.748
41 | COCCOCC(=O)N1C[C@@H]2CC[C@H](Oc3ccccc3F)[C@@H]2C1 | 12.1
42 | COC(=O)CSCc1noc(-c2ccc(Cl)cc2)n1 | -13.5

Row | Compound | cytotoxicity at 70.5 h [%]
43 | O=C(N1CCCC1)N1CCC2(CC1)C(=O)N(CC1CC1)c1ccccc12 | -20.3
44 | COc1cc(NC(=O)c2ccc(CN3CC[C@H](O)C3)cc2)cc(OC)c1 | -10.7
45 | CN(C)C(=O)NCc1cc(=O)n2c(n1)CN(Cc1ccoc1)CCC2 | 16.4
46 | C[C@@H]1CN(c2ccc(Cl)cn2)C[C@]1(C)O | 3.11
47 | Cc1cccc(S(=O)(=O)N2CC[C@H]3CO[C@H](CN(C)C)[C@H]3C2)c1 | -6.86
48 | Cc1nn(CC(=O)N2CCC(Nc3cccnn3)CC2)c(C)c1Cl | 28.5
49 | CCCc1noc(C2CC(=O)N(CCN(C)C)C2)n1 (configuration not stated) | -18.6
50 | c1cnc(N2CCO[C@@H]3CN(Cc4ccoc4)C[C@@H]3C2)nc1 | 4.32
51 | Cc1nc(NC(=O)C2(C)CN(C)CCO2)sc1C (configuration not stated) | -2.07
52 | O=S1(=O)NCC2(CCN(Cc3ccc(Cl)s3)C2)Oc2ncccc21 (configuration not stated) | 17.2
53 | CCc1ncc2c(n1)CN(Cc1nnc(C(C)C)o1)CC2 | -99.6
54 | CC1CCN(S(=O)(=O)c2cccnc2)c2ccccc2S1 (configuration not stated) | -3.73
55 | CCN1CCN(C(C)CNC(=O)Nc2nnc(C(C)C)s2)CC1 (configuration not stated) | -12.4
56 | CN(CCOc1ccccc1F)C1CCOC1=O (configuration not stated) | -1.46
57 | O=C(NCc1cccc(F)c1)NCC(O)c1cccc(F)c1 (configuration not stated) | 20.3
58 | CCCN(C)C(=O)Nc1ccc(C(=O)NCCC(=O)OC)cc1 | -6.01
59 | Cc1ccc(F)cc1NC(=O)c1[nH]ncc1Br | -7.98
60 | CN(Cc1nnnn1C1CC1)CC1COc2ccccc2O1 (configuration not stated) | -0.558
61 | Nc1nnc(SCC(=O)c2cc3c(cc2Cl)NC(=O)C3)s1 | -25.4
62 | COc1ccc([C@@H]2CN(C(=O)c3cscn3)C[C@H]2C(=O)O)cc1 | -3.2
63 | CC(CNC(=O)c1ccc(Cl)cc1I)N1CCCC1 (configuration not stated) | -8.19

Row | Compound | cytotoxicity at 70.5 h [%]
64 | O=c1[nH]c2nc(NCC3CCCO3)ncc2c(=O)n1-c1ccc(F)cc1 (configuration not stated) | 1.97
65 | O=C(O)c1cncc(Cc2cccc(F)c2)c1 | -7.96
66 | NC(=O)CN(Cc1ccc(Br)cc1)C(=O)c1cnccn1 | -5.94
67 | Cc1n[nH]c(C)c1S(=O)(=O)N1CCC(Oc2ccccc2F)CC1 | -7.37
68 | CCC1C(=O)NCCN1c1nccc(C)n1 (configuration not stated) | 45.2
69 | Cn1ccnc1CN1CCCN(C(=O)COCC2CC2)CC1 | -3.74
70 | O=C(NC1CC1)C1CCN(c2snc3ccccc23)CC1 | 15.8
71 | Cc1cnc(C(=O)N[C@H]2CN(CCS(C)(=O)=O)C[C@@H]2C2CC2)cn1 | 12.4
72 | Cc1ccc2c(n1)N(Cc1cccnc1)CCN(C(=O)C1CC1)C2 | 11.2
73 | O=C1CC(c2ccncc2)C2(CCN(Cc3ccc(F)cc3)CC2)N1 (configuration not stated) | -9.81
74 | CN(C)C(=O)c1cccc(CN2CCN(CCO)CC2)c1 | 38.5
75 | NC(=O)NCC(=O)N1CCC(c2cc(-c3ccccc3Cl)n[nH]2)CC1 | -4.95
76 | NC(=O)C1CCN(c2nccc(-c3c[nH]nc3C3CCCCC3)n2)CC1 | -4.42
77 | Cc1cc(C)nc(N2CCC(C(=O)Nc3n[nH]c(C)n3)CC2)n1 | -7.75
78 | CC(=O)NC[C@@]1(COc2cnccn2)C[C@@H](O)[C@@H](O)C1 | -3.14
79 | Cn1ccnc1C1CCN(CCC2CCOC2)CC1 (configuration not stated) | 14.8
80 | CC(=O)NCCc1ccc(S(=O)(=O)N(C)C(C)CC(C)C)s1 (configuration not stated) | -7.26
81 | Cc1ccc(CN(C(=O)NCC(c2cccs2)N(C)C)C2CC2)o1 (configuration not stated) | -5.44
82 | CN(C)Cc1csc(-c2nccn2Cc2ccc(C(=O)O)cc2)c1 | 19.3
